Data on 2 compounds can be found in article PMC12365235, “Molecular mechanisms of thiazide-like diuretics-mediated inhibition of the human Na-Cl cotransporter” (Nature Communications, 2025).

This assay has as its target T1, hNCC(N227A) (Homo sapiens, UniProt P55017, N227A).
T1 construct: expressed in transfected cells
T1 sequence (P55017 1-1021 N227A): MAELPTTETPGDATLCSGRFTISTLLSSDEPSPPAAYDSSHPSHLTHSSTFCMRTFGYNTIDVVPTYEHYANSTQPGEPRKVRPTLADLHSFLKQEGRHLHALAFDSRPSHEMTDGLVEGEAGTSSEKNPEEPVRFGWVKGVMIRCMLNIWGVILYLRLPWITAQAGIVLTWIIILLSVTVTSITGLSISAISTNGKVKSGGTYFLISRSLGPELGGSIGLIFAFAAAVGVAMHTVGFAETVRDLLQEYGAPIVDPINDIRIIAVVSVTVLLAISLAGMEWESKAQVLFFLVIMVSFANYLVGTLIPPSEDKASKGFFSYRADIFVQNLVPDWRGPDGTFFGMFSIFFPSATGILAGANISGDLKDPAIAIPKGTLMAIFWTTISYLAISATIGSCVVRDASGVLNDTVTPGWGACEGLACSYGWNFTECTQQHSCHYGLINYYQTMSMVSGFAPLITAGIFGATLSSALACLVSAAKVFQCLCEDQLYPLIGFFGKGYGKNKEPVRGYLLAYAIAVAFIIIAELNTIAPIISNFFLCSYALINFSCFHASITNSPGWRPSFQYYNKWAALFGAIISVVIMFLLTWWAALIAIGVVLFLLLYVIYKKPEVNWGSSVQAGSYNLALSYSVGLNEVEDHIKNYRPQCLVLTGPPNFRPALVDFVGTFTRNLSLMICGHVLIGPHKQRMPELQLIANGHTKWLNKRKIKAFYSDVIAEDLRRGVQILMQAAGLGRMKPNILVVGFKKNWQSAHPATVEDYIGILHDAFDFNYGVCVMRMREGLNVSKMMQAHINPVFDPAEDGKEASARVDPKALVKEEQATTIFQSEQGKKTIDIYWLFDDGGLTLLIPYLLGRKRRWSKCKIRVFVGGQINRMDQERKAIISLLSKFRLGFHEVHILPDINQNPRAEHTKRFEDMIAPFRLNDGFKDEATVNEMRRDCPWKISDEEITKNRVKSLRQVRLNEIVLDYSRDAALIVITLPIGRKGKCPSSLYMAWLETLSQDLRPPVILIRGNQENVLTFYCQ
Put plainly: 125I- uptake assay, hNCC(N227A) variant. It counts as cell-based. The note with it: for increase in IC50 relative to hNCC(WT) / IC50: N227A substitution; for IC50: iodide uptake. On the procedure:
HEK293S cell lines, cultured in 293 Freestyle medium (Life Technologies; plus 10% fetal bovine serum), stably expressing hNCC and its variants were generated following published protocols. Cells were transfected using Lipofectamine 3000 (Invitrogen) with a pSBbi-RP-based plasmid containing hNCC or its variants and the SB100X vector. Puromycin (2 μg/mL; Gemini Bio-Products) was used for selection of stable cell lines.
To prepare for the uptake experiment, cells were plated at 0.5 × 10^6 cells/well in 24-well plates one day in advance. To activate NCC, cells were treated with a chloride-free hypotonic solution composed of 67.5 mM sodium-, 2.5 mM potassium-, 0.25 mM magnesium-, and 0.25 mM calcium-gluconate, as well as 7.5 mM HEPES pH 7.4 (buffered using Tris) at 37 °C for 10 min[72]. After the activation step, the experiments were carried out at room temperature. Ten minutes before the start of ^125I^− uptake, 70 μM Bumetanide (Thermo Scientific Chemicals) and 100 μM 4,4′-diisothiocyanatostilbene-2,2′-disulfonic acid (DIDS; Sigma) were added to suppress background iodide uptake activity. Indicated thiazide diuretics were also added to the indicated concentrations 10 min before the start of ^125I^− uptake. The original buffer was switched to an uptake buffer composed of 135 mM Na-gluconate, 5 mM K-gluconate, 1 mM Mg-gluconate, 1 mM Ca-gluconate, 70 μM bumetanide, 100 μM DIDS, 1 mM NaI, 0.25 μCi/ml Na^125I (American Radiolabeled Chemicals, Inc.), and 15 mM HEPES pH 7.4 (buffered using Tris), in the presence or absence of thiazide diuretics to initiate ^125I^− uptake. The ^125I^− uptake process lasted 1 h and was stopped by two rapid washes using ice-cold 110 mM MgCl2. Cells lysed using 1% sodium dodecyl sulfate (SDS) were analyzed by scintillation counting.
To calculate the fold change of the half-maximal inhibitory concentration (IC50) between hNCC(WT) and different hNCC variants, individual dose-response curves were normalized first using the smallest mean and the value of the lowest concentration as 0% and 100%, respectively. The normalized data were then fitted using the “EC50 shift” nonlinear regression in GraphPad Prism 10 with the shared EC50Control assigned to be the IC50 of hNCC(WT). The following constraints were used in the EC50 shift analysis. The EC50Control was set to be shared across all curves under analysis and constrained to be greater than 0. The EC50Ratio was constrained to be greater than 0. The bottom, top, and HillSlope were constrained to be 0, 100, and −1, respectively. For Fig. 1f, g and Supplementary Fig. 2d, GraphPad Prism 10 was used to perform curve fitting and IC50 calculation for normalized data using y = 100/(1 + (x/IC50)).

A word on the IC50: it is the point on the concentration scale where inhibition reaches its midpoint. For the compound `NS(=O)(=O)c1cc(C2(O)NC(=O)c3ccccc32)ccc1Cl` (centres unmarked) [chlorthalidone], the “increase in IC50 relative to hNCC(WT)” value is listed as > 1000 fold and 59 µM corresponded to half-maximal inhibition (IC50).

For the compound `CC1Cc2ccccc2N1NC(=O)c1ccc(Cl)c(S(N)(=O)=O)c1` (centres unmarked) [indapamide], the “increase in IC50 relative to hNCC(WT)” value is on record as “over 10,000 fold” and the IC50 amounted to 620 µM. In addition, the “effect of N227A substitution on potency relative to its effect on polythiazide” value (N227A, polythiazide sensitivities from ref 36) is given as “over 50 fold”.
